{
  "source": "ChEMBL document CHEMBL3886171",
  "about": "“Compounds and compositions for the inhibition of NAMPT” (2015)",
  "molecular_target": "Nicotinamide phosphoribosyltransferase (Homo sapiens, UniProt P43490)",
  "sequence (P43490 whole entry)": "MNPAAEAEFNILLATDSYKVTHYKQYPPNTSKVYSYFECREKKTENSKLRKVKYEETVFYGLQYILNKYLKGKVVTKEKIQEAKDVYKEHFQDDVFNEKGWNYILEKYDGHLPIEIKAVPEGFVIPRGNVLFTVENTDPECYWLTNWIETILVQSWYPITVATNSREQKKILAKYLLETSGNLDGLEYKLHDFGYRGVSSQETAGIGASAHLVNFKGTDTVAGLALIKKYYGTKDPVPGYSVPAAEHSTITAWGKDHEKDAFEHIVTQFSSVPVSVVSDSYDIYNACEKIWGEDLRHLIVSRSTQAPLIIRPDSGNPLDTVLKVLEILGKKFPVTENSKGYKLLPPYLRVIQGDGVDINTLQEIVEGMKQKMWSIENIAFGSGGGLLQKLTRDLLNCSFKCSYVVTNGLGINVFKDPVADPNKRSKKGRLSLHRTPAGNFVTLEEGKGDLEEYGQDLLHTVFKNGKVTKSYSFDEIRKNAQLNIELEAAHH",
  "assay": "Biochemical Inhibition Assay: The NAMPT enzymatic reactions were carried out in Buffer A (50 mM Hepes pH 7.5, 50 mM NaCl, 5 mM MgCl2, and 1 mM THP) in 96-well V-bottom plates. The compound titrations were performed in a separate dilution plate by serially diluting the compounds in DMSO to make a 100x stock. Buffer A (89 uL) containing 33 nM of NAMPT protein was added to 1 uL of 100x compound …",
  "description": "Biochemical Inhibition Assay: The NAMPT enzymatic reactions were carried out in Buffer A (50 mM Hepes pH 7.5, 50 mM NaCl, 5 mM MgCl2, and 1 mM THP) in 96-well V-bottom plates. The compound titrations were performed in a separate dilution plate by serially diluting the compounds in DMSO to make a 100x stock. […] The compound and enzyme mix was incubated for 15 minutes at room temperature, then 10 uL of 10x substrate and co-factors in Buffer A were added to the test well to make a final concentration of 1 uM NAM, 100 uM 5-Phospho-D-ribose 1-diphosphate (PRPP), and 2.5 mM Adenosine 5'-triphosphate (ATP). The reaction was allowed to proceed for 30 minutes at room temperature, then was quenched with the addition of 11 uL of a solution of formic acid and L-Cystathionine to make a final concentration of 1% formic acid and 10 uM L-Cystathionine.",
  "data": [
    {"smiles": "Cn1ncc2ccc(S(=O)(=O)c3ccc(NC(=O)/C=C/c4cccnc4)cc3)cc21", "values": [
      {"measurement": "IC50", "result": 2.6, "unit": "nM"}
    ]}
  ]
}
